Assay results reported in ChEMBL document CHEMBL5620423, “Highly-tumor-targeted PAD4 inhibitors with PBA modification inhibit tumors in vivo by specifically inhibiting the PAD4-H3cit-NETs pathway in neutrophils” (Eur J Med Chem, 2023).
Active and inactive are the calls of the source. The calls are words filed in the database; no cut-off is given here.

How the values were obtained:
4T1 [1] = assay: Cytotoxicity against mouse 4T1 cells assessed as reduction in cell viability measured after 48 hrs by MTT assay; details: 4T1, 48 h
Sarcoma-180 [2] = assay: Antitumor activity against Sarcoma-180 mouse model assessed as tumor weight at 10 umol/kg (reference value: 1.65 +/-0.2 gms); format: functional; details: dose 10 µmol/kg
Sarcoma-180 [3] = assay: Antitumor activity against Sarcoma-180 mouse model assessed as inhibition of tumor growth at 10 umol/kg; format: functional
Lewis lung carcinoma = assay: Cytotoxicity against mouse Lewis lung carcinoma cells assessed as effect on cell viability at 3.125 to 100 uM measured after 48 hrs by MTT assay; format: functional, cell-based; details: dose 3.125-100 µM
4T1 [4] = assay: Cytotoxicity against mouse 4T1 cells assessed as effect on cell viability at 3.125 to 100 uM measured after 48 hrs by MTT assay; format: functional, cell-based; details: dose 3.125-100 µM
L02 = assay: Cytotoxicity against human HL7702 cells assessed as effect on cell viability at 3.125 to 100 uM measured after 48 hrs by MTT assay; format: toxicity, cell-based; details: l02, 48 h, dose 3.125-100 µM
[5] = Drug uptake in human HL7702 cells assessed as green fluorescence intensity at 50 uM measured after 48 hrs by Hoechst33342 staining based confocal laser microscopy; format: ADME, cell-based; details: l02, 48 h
[6] = Drug uptake in mouse 4T1 cells assessed as layer of green fluorescence around the cell membrane at 50 uM measured after 48 hrs by Hoechst33342 staining based confocal laser microscopy; format: ADME; details: 4t1, 48 h
4T1 [7] = assay: Induction of cell morphological changes in mouse 4T1 cells assessed as increase in number of cells with shrank mitochondria measured after 48 hrs by transmission electron microscopy; format: functional, cell-based
4T1 [8] = assay: Induction of cell morphological changes in mouse 4T1 cells assessed as rounded tumor cells at 50 uM measured after 48 hrs by scanning electron microscopy; format: functional, cell-based
4T1 [9] = assay: Induction of cell morphological changes in mouse 4T1 cells assessed as reduction in pseudopodia on cell surface at 50 uM measured after 48 hrs by scanning electron microscopy; format: functional, cell-based
[10] = Drug uptake in mouse 4T1 cells assessed as increase in green fluorescence intensity at 50 uM measured for 24 hrs flow cytometry; format: ADME, cell-based; details: 4t1, 24 h
[11] = target: Protein-arginine deiminase type-4 (Mus musculus) (UniProt Q9Z183); assay: Inhibition of PAD4 in mouse bone marrow neutrophils assessed as reduction in H3 cit expression by measuring red filamentous histone structure at 50 uM measured after 48 hrs by Hoechst33342 staining based confocal laser scanning microscopy; format: cell-based; details: Neutrophil
[12] = Drug uptake in mouse 4T1 cells assessed as drug localization in cytoplasm at 50 uM measured after 48 hrs by Hoechst33342 staining based confocal laser scanning microscopy; format: ADME, cell-based; details: 4t1, 48 h
[13] = Drug uptake in mouse bone marrow neutrophils assessed as drug localization in nucleus at 50 uM measured after 48 hrs by Hoechst33342 staining based confocal laser scanning microscopy; format: ADME, cell-based; details: neutrophil
[14] = target: Protein-arginine deiminase type-4 (Mus musculus) (UniProt Q9Z183); assay: Inhibition of PAD4 in mouse 4T1 cells assessed as reduction in citrullinated histone level at 100 uM measured after 48 hrs by Hoechst33342 staining based confocal laser scanning microscopy; format: cell-based
[15] = target: Protein-arginine deiminase type-4 (Mus musculus) (UniProt Q9Z183); assay: Inhibition of PAD4 in mouse bone marrow neutrophils assessed as reduction in citrullinated histone level at 100 uM measured after 48 hrs by Hoechst33342 staining based confocal laser scanning microscopy; format: cell-based; details: Neutrophil
4T1 [16] = assay: Antitumor activity against mouse 4T1 cells xenografted in BALB/c mouse assessed as reduction in tumor volume at 2 to 10 umol/kg, iv for 21 days; format: functional, organism-based; details: dose 2-10 µmol/kg, time 21.0 day
4T1 [17] = assay: Antitumor activity against mouse 4T1 cells xenografted in BALB/c mouse assessed as reduction in tumor weight at 10 umol/kg, iv for 21 days; format: functional, organism-based; details: dose 10.0 µmol/kg, time 21.0 day
[18] = Toxicity in BALB/c mouse xenografted with mouse 4T1 cells assessed as decrease in body weight at 2 to 10 umol/kg, iv measured after 9 to 15 days; format: organism-based; details: in vivo, dose lower 2 µmol/kg, time lower 9 day, dose upper 10 µmol/kg, time upper 15 day
4T1 [19] = assay: Anti-metastatic activity against mouse 4T1 cells xenografted in BALB/c mouse assessed as reduction in number of lung metastatic tumor nodules at 5 to 10 umol/kg, iv for 21 days; format: functional, organism-based; details: dose 5-10 µmol/kg, time 21.0 day
4T1 [20] = assay: Anti-metastatic activity against mouse 4T1 cells assessed as reduction in tumor cell lesions in lungs at 10 umol/kg, iv for 21 days by Hematoxylin-Eosin staining; format: functional, organism-based; details: dose 10.0 µmol/kg, time 21.0 day
4T1 [21] = assay: Anti-metastatic activity against mouse 4T1 cells assessed as reduction in tumor cell lesions in lungs at 5 umol/kg, iv for 21 days by Hematoxylin-Eosin staining; format: functional, organism-based; details: dose 5.0 µmol/kg, time 21.0 day
4T1 [22] = assay: Anti-metastatic activity against mouse 4T1 cells assessed as reduction in inflammatory cell infiltration in lungs at 5 umol/kg, iv for 21 days by Hematoxylin-Eosin staining; format: functional, organism-based; details: dose 5.0 µmol/kg, time 21.0 day
4T1 [23] = assay: Anti-metastatic activity against mouse 4T1 cells assessed as reduction in tumor cell lesions in lungs at 2 umol/kg, iv for 21 days by Hematoxylin-Eosin staining; format: functional, organism-based; details: dose 2.0 µmol/kg, time 21.0 day
4T1 [24] = assay: Anti-metastatic activity against mouse 4T1 cells assessed as reduction in neutrophil extranuclear traps formation by measuring decrease in Ly6G-labeled neutrophils in tumor at 10 umol/kg, iv for 21 days by immunofluorescence analysis; format: functional, organism-based; details: dose 10.0 µmol/kg, time 21.0 day
4T1 [25] = assay: Anti-metastatic activity against mouse 4T1 cells assessed as reduction in neutrophil extranuclear traps formation by measuring decrease in H3cit positivity in tumor at 10 umol/kg, iv for 21 days by immunofluorescence analysis; format: functional, organism-based; details: dose 10.0 µmol/kg, time 21.0 day
[26] = Hepatotoxicity in BALB/c mouse xenografted with mouse 4T1 cells assessed as serum ALT level at 2 to 10 umol/kg, iv for 21 days; format: toxicity, organism-based; details: in vivo, 504 h, dose 2-10 µmol/kg, time 21 day
[27] = Hepatotoxicity in BALB/c mouse xenografted with mouse 4T1 cells assessed as serum AST level at 2 to 10 umol/kg, iv for 21 days; format: toxicity, organism-based; details: in vivo, 504 h, dose 2-10 µmol/kg, time 21 day
[28] = Nephrotoxicity in BALB/c mouse xenografted with mouse 4T1 cells assessed as serum creatinine level at 2 to 10 umol/kg, iv for 21 days; format: toxicity, organism-based; details: in vivo, 504 h, dose 2-10 µmol/kg, time 21 day
[29] = Nephrotoxicity in BALB/c mouse xenografted with mouse 4T1 cells assessed as serum BUN level at 2 to 10 umol/kg, iv for 21 days; format: toxicity, organism-based; details: in vivo, 504 h, dose 2-10 µmol/kg, time 21 day
[30] = Toxicity in BALB/c mouse xenografted with mouse 4T1 cells assessed as heart morphological changes at 10 umol/kg, iv for 21 days by Hematoxylin-Eosin staining based analysis; format: organism-based; details: in vivo, 504 h, dose 10 µmol/kg, time 21 day
[31] = Toxicity in BALB/c mouse xenografted with mouse 4T1 cells assessed as liver morphological changes at 10 umol/kg, iv for 21 days by Hematoxylin-Eosin staining based analysis; format: organism-based; details: in vivo, 504 h, dose 10 µmol/kg, time 21 day
[32] = Toxicity in BALB/c mouse xenografted with mouse 4T1 cells assessed as spleen morphological changes at 10 umol/kg, iv for 21 days by Hematoxylin-Eosin staining based analysis; format: organism-based; details: in vivo, 504 h, dose 10 µmol/kg, time 21 day
[33] = Toxicity in BALB/c mouse xenografted with mouse 4T1 cells assessed as kidney morphological changes at 10 umol/kg, iv for 21 days by Hematoxylin-Eosin staining based analysis; format: organism-based; details: in vivo, 504 h, dose 10 µmol/kg, time 21 day
Mus musculus [34] = assay: Immunomodulatory activity in iv dosed BALB/c mouse xenografted with mouse 4T1 cells assessed as increase in normal neutrophils in tumor tissues administered for 21 days by CyTOF analysis; format: functional, organism-based; details: time 21.0 day
Mus musculus [35] = assay: Immunomodulatory activity in iv dosed BALB/c mouse xenografted with mouse 4T1 cells assessed as decrease in proportion of aged neutrophils (CD194hi|CD62Llo) in tumor tissues administered for 21 days by CyTOF analysis; format: functional, organism-based; details: time 21.0 day
Mus musculus [36] = assay: Immunomodulatory activity in iv dosed BALB/c mouse xenografted with mouse 4T1 cells assessed as macrophage polarization by measuring increase in proportion of M1 macrophages administered for 21 days by CyTOF analysis; format: functional, organism-based; details: time 21.0 day
Mus musculus [37] = assay: Immunomodulatory activity in iv dosed BALB/c mouse xenografted with mouse 4T1 cells assessed as macrophage polarization by measuring proportion of M2 macrophages administered for 21 days by CyTOF analysis; format: functional, organism-based; details: time 21.0 day
Sarcoma-180 [38] = assay: Antitumor activity against Sarcoma-180 mouse model assessed as tumor weight at 2 umol/kg (reference value: 1.65 +/-0.2 gms); format: functional; details: dose 2 µmol/kg
Sarcoma-180 [39] = assay: Antitumor activity against Sarcoma-180 mouse model assessed as inhibition of tumor growth at 2 umol/kg; format: functional

Protein-arginine deiminase type-4 (Mus musculus), sequence (Q9Z183 whole entry): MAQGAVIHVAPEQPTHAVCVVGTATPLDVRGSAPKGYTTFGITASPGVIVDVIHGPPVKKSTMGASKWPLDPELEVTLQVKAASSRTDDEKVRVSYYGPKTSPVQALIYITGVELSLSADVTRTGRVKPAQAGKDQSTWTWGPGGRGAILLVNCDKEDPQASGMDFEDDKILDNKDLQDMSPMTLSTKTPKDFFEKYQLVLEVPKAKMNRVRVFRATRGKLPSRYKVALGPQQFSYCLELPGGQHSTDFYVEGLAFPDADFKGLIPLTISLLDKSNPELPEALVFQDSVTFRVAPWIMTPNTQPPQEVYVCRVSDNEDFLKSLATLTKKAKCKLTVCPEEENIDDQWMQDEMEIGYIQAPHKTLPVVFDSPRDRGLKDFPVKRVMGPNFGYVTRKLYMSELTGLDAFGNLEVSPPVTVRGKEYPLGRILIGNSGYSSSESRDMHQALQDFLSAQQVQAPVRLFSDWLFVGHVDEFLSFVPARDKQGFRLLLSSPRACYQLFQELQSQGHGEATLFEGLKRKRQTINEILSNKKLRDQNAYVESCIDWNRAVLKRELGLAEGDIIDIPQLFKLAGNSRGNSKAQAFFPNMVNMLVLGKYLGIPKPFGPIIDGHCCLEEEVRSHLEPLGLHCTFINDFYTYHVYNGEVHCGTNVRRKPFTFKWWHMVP

N=C(CCl)NCCC[C@H](NC(=O)c1cc(B(O)O)ccc1F)C(=O)NCc1ccccc1
IC50 (4T1 [1]): > 100 µM | Activity (Sarcoma-180 [2]): 1.14 g | inhibition in vivo at 10 µmol/kg (Sarcoma-180 [3]): 30.8%

N=C(CCl)NCCC[C@H](NC(=O)c1cc([N+](=O)[O-])c2nonc2c1)C(=O)NCc1cccc(B(O)O)c1
IC50 (4T1 [1]): > 100 µM | Activity (Sarcoma-180 [2]): 0.84 g | inhibition in vivo at 10 µmol/kg (Sarcoma-180 [3]): 49.2% | Activity (Lewis lung carcinoma): inactive | Activity (4T1 [4]): inactive | Activity (L02): Non-Toxic | Drug uptake [5]: Not Active | Drug uptake [6]: Active | Activity (4T1 [7]): Active | Activity (4T1 [8]): Active | Activity (4T1 [9]): Active | Drug uptake [10]: Active | inhibition [11]: Active | Drug uptake [12]: Active | Drug uptake [13]: Active | inhibition [14]: Active | inhibition [15]: Active | Activity (4T1 [16]): Active | Activity (4T1 [17]): Active | Activity [18]: Non-Toxic | Activity (4T1 [19]): Active | Activity (4T1 [20]): Active | Activity (4T1 [21]): Active | Activity (4T1 [22]): inactive | Activity (4T1 [23]): inactive | Activity (4T1 [24]): Active | Activity (4T1 [25]): Active | Activity [26]: Non-Toxic | Activity [27]: Non-Toxic | Activity [28]: Non-Toxic | Activity [29]: Non-Toxic | Activity [30]: Non-Toxic | Activity [31]: Non-Toxic | Activity [32]: Non-Toxic | Activity [33]: Non-Toxic | Activity (Mus musculus [34]): Active | Activity (Mus musculus [35]): Active | Activity (Mus musculus [36]): Active | Activity (Mus musculus [37]): inactive

N=C(CCl)NCCC[C@H](NC(=O)c1cc([N+](=O)[O-])c2nonc2c1)C(=O)NCc1ccccc1B(O)O
IC50 (4T1 [1]): > 100 µM | Activity (Sarcoma-180 [2]): 0.89 g | inhibition in vivo at 10 µmol/kg (Sarcoma-180 [3]): 45.7%

COc1cccc2c1C(=O)c1c(O)c3c(c(O)c1C2=O)C[C@@](O)(C(=O)CO)C[C@@H]3O[C@H]1C[C@H](N)[C@H](O)[C@H](C)O1 [DOXORUBICIN]
IC50 (4T1 [1]): 1.63 µM | Activity (Sarcoma-180 [38]): 0.94 g | inhibition in vivo at 2 µmol/kg (Sarcoma-180 [39]): 42.7%

N=C(CCl)NCCC[C@H](NC(=O)c1cc(F)cc(B(O)O)c1)C(=O)NCc1ccccc1
IC50 (4T1 [1]): > 100 µM | Activity (Sarcoma-180 [2]): 1.01 g | inhibition in vivo at 10 µmol/kg (Sarcoma-180 [3]): 38.7%

N=C(CCl)NCCC[C@H](NC(=O)c1cccc(B(O)O)c1F)C(=O)NCc1ccccc1
IC50 (4T1 [1]): > 100 µM | Activity (Sarcoma-180 [2]): 0.93 g | inhibition in vivo at 10 µmol/kg (Sarcoma-180 [3]): 43.7%
